Values of other authors in patent US20060062853A1 (Medical Research Institute, priority 2004, published 2006).

What was measured:
[1] = such as juices
[2] = not given; remark: listed apart in the source

For `CN(CC(=O)O)C(=N)N` [creatine, N-(aminoiminomethyl)-N-methylglycine], the “half-life in blood plasma” value is given as 1 to 1.5 h, the “stability in acidic solutions” value [1] is given as “not stable” and the “creatine lost from the cell” value ([2]; 70 kg male) is given as “approximately 2 grams per day”. The “loss of creatine from skeletal muscle” value ([2]; skeletal muscle) was “about 3 % per day”.
